The source made the active and inactive calls. The calls are words filed in the database; no cut-off is given here.
Assays:
Cytochrome P450 (family) [1] = target: T1, Cytochrome P450 (family) (Homo sapiens, UniProt P04798+P05177+P05181+P08684+P10632+P10635+P11509+P11712+P13584+P20813+P20815+P20853+P24462+P24903+P33260+P33261+P51589+P78329+P98187+Q02928+Q08477+Q16678+Q16696+Q5TCH4+Q6VVX0+Q7Z449+Q8TAV3+Q96SQ9+Q9HB55); experiment: Drug metabolism in human liver microsome S9 fraction assessed as CYP450-mediated metabolism by measuring compound remaining at 5 uM pretreated with NADPH and measured after 15 mins by UPLC-MS/MS analysis; type: ADME, microsomes; details: liver microsome S9 fraction, read-out: Stability
[2] = Therapeutic index, ratio EC50 for human MRC5 SV2 cells to EC50 for Trypanosoma cruzi Tulahuen CL2 intracellular amastigotes; type: toxicity, cell-based; details: read-out: Ratio EC50
Trypanosoma cruzi [3] = experiment: Antiparasitic activity against Trypanosoma cruzi Tulahuen CL2 intracellular amastigotes expressing beta-galactosidase infected in human MRC5 SV2 cells after 7 days by chlorophenol red beta-D-galactopyranoside-based spectrophotometric analysis; type: functional, organism-based; details: Tulahuen CL2, MRC-5 SV2, 168 h, read-out: EC50
[4] = Cytotoxicity against human MRC5 SV2 cells assessed as reduction in cell viability after 3 days resazurin-based fluorimetric assay; details: MRC-5 SV2, 72 h
CYP450 [5] = experiment: Drug metabolism in mouse liver microsome S9 fraction assessed as CYP450-mediated metabolism by measuring compound remaining at 5 uM pretreated with NADPH and measured after 15 mins by UPLC-MS/MS analysis; type: ADME, microsomes; details: liver microsome S9 fraction, read-out: Stability
CYP450 [6] = experiment: Drug metabolism in mouse liver microsome S9 fraction assessed as CYP450-mediated metabolism by measuring compound remaining at 5 uM pretreated with NADPH and measured after 30 mins by UPLC-MS/MS analysis; type: ADME, microsomes; details: liver microsome S9 fraction, read-out: Stability
CYP450 [7] = experiment: Drug metabolism in mouse liver microsome S9 fraction assessed as CYP450-mediated metabolism by measuring compound remaining at 5 uM pretreated with NADPH and measured after 60 mins by UPLC-MS/MS analysis; type: ADME, microsomes; details: liver microsome S9 fraction, read-out: Stability
UGT [8] = experiment: Drug metabolism in mouse liver microsome S9 fraction assessed as UGT-mediated metabolism by measuring compound remaining at 5 uM pretreated with UDPGA and measured after 15 mins by UPLC-MS/MS analysis; type: ADME, microsomes; details: liver microsome S9 fraction, read-out: Stability
UGT [9] = experiment: Drug metabolism in mouse liver microsome S9 fraction assessed as UGT-mediated metabolism by measuring compound remaining at 5 uM pretreated with UDPGA and measured after 30 mins by UPLC-MS/MS analysis; type: ADME, microsomes; details: liver microsome S9 fraction, read-out: Stability
UGT [10] = experiment: Drug metabolism in mouse liver microsome S9 fraction assessed as UGT-mediated metabolism by measuring compound remaining at 5 uM pretreated with UDPGA and measured after 60 mins by UPLC-MS/MS analysis; type: ADME, microsomes; details: liver microsome S9 fraction, read-out: Stability
CYP450 [11] = experiment: Drug metabolism in rat liver microsome S9 fraction assessed as CYP450-mediated metabolism by measuring compound remaining at 5 uM pretreated with NADPH and measured after 15 mins by UPLC-MS/MS analysis; type: ADME, microsomes; details: liver microsome S9 fraction, read-out: Stability
CYP450 [12] = experiment: Drug metabolism in rat liver microsome S9 fraction assessed as CYP450-mediated metabolism by measuring compound remaining at 5 uM pretreated with NADPH and measured after 30 mins by UPLC-MS/MS analysis; type: ADME, microsomes; details: liver microsome S9 fraction, read-out: Stability
CYP450 [13] = experiment: Drug metabolism in rat liver microsome S9 fraction assessed as CYP450-mediated metabolism by measuring compound remaining at 5 uM pretreated with NADPH and measured after 60 mins by UPLC-MS/MS analysis; type: ADME, microsomes; details: liver microsome S9 fraction, read-out: Stability
UGT [14] = experiment: Drug metabolism in rat liver microsome S9 fraction assessed as UGT-mediated metabolism by measuring compound remaining at 5 uM pretreated with UDPGA and measured after 15 mins by UPLC-MS/MS analysis; type: ADME, microsomes; details: liver microsome S9 fraction, read-out: Stability
UGT [15] = experiment: Drug metabolism in rat liver microsome S9 fraction assessed as UGT-mediated metabolism by measuring compound remaining at 5 uM pretreated with UDPGA and measured after 30 mins by UPLC-MS/MS analysis; type: ADME, microsomes; details: liver microsome S9 fraction, read-out: Stability
UGT [16] = experiment: Drug metabolism in rat liver microsome S9 fraction assessed as UGT-mediated metabolism by measuring compound remaining at 5 uM pretreated with UDPGA and measured after 60 mins by UPLC-MS/MS analysis; type: ADME, microsomes; details: liver microsome S9 fraction, read-out: Stability
CYP450 [17] = experiment: Drug metabolism in dog liver microsome S9 fraction assessed as CYP450-mediated metabolism by measuring compound remaining at 5 uM pretreated with NADPH and measured after 15 mins by UPLC-MS/MS analysis; type: ADME, microsomes, Canis lupus familiaris; details: liver microsome S9 fraction, read-out: Stability
CYP450 [18] = experiment: Drug metabolism in dog liver microsome S9 fraction assessed as CYP450-mediated metabolism by measuring compound remaining at 5 uM pretreated with NADPH and measured after 30 mins by UPLC-MS/MS analysis; type: ADME, microsomes, Canis lupus familiaris; details: liver microsome S9 fraction, read-out: Stability
UGT [19] = experiment: Drug metabolism in dog liver microsome S9 fraction assessed as UGT-mediated metabolism by measuring compound remaining at 5 uM pretreated with UDPGA and measured after 30 mins by UPLC-MS/MS analysis; type: ADME, microsomes, Canis lupus familiaris; details: liver microsome S9 fraction, read-out: Stability
CYP450 [20] = experiment: Drug metabolism in dog liver microsome S9 fraction assessed as CYP450-mediated metabolism by measuring compound remaining at 5 uM pretreated with NADPH and measured after 60 mins by UPLC-MS/MS analysis; type: ADME, microsomes, Canis lupus familiaris; details: liver microsome S9 fraction, read-out: Stability
UGT [21] = experiment: Drug metabolism in dog liver microsome S9 fraction assessed as UGT-mediated metabolism by measuring compound remaining at 5 uM pretreated with UDPGA and measured after 15 mins by UPLC-MS/MS analysis; type: ADME, microsomes, Canis lupus familiaris; details: liver microsome S9 fraction, read-out: Stability
UGT [22] = experiment: Drug metabolism in dog liver microsome S9 fraction assessed as UGT-mediated metabolism by measuring compound remaining at 5 uM pretreated with UDPGA and measured after 60 mins by UPLC-MS/MS analysis; type: ADME, microsomes, Canis lupus familiaris; details: liver microsome S9 fraction, read-out: Stability
Cytochrome P450 (family) [23] = target: T1, Cytochrome P450 (family); experiment: Drug metabolism in human liver microsome S9 fraction assessed as CYP450-mediated metabolism by measuring compound remaining at 5 uM pretreated with NADPH and measured after 30 mins by UPLC-MS/MS analysis; type: ADME, microsomes; details: liver microsome S9 fraction, read-out: Stability
Cytochrome P450 (family) [24] = target: T1, Cytochrome P450 (family); experiment: Drug metabolism in human liver microsome S9 fraction assessed as CYP450-mediated metabolism by measuring compound remaining at 5 uM pretreated with NADPH and measured after 60 mins by UPLC-MS/MS analysis; type: ADME, microsomes; details: liver microsome S9 fraction, read-out: Stability
[25] = target: T2, UDP-glucuronosyltransferases (UGTs) (family) (Homo sapiens, UniProt O60656+O75310+O75795+P06133+P0DTE4+P0DTE5+P16662+P19224+P22309+P22310+P35503+P35504+P36537+P54855+Q6UWM9+Q9BY64+Q9HAW7+Q9HAW8+Q9HAW9); experiment: Drug metabolism in human liver microsome S9 fraction assessed as UGT-mediated metabolism by measuring compound remaining at 5 uM pretreated with UDPGA and measured after 15 mins by UPLC-MS/MS analysis; type: ADME, microsomes; details: liver microsome S9 fraction, read-out: Stability
[26] = target: T2, UDP-glucuronosyltransferases (UGTs) (family); experiment: Drug metabolism in human liver microsome S9 fraction assessed as UGT-mediated metabolism by measuring compound remaining at 5 uM pretreated with UDPGA and measured after 30 mins by UPLC-MS/MS analysis; type: ADME, microsomes; details: liver microsome S9 fraction, read-out: Stability
[27] = target: T2, UDP-glucuronosyltransferases (UGTs) (family); experiment: Drug metabolism in human liver microsome S9 fraction assessed as UGT-mediated metabolism by measuring compound remaining at 5 uM pretreated with UDPGA and measured after 60 mins by UPLC-MS/MS analysis; type: ADME, microsomes; details: liver microsome S9 fraction, read-out: Stability
Trypanosoma cruzi [28] = experiment: Antiparasitic activity against Trypanosoma cruzi Y strain bloodstream trypomastigotes infected in Swiss Webster mouse assessed as decrease in parasitemia at 25 mg/kg, po bid via gavage administered for 5 consecutive days measured at day 8 post infection by direct microscopic counting relative to control; type: functional; set-up: scale not given: the % may be the effect or the level left
Trypanosoma cruzi [29] = experiment: (§1) Antiparasitic activity against Trypanosoma cruzi Y strain bloodstream trypomastigotes infected in Swiss Webster mouse assessed as protection against parasite-induced mortality at 25 mg/kg, po bid via gavage administered for 5 consecutive days starting from day 5 post infection measured at day 15 post infection; type: functional, organism-based
Trypanosoma cruzi [30] = experiment: as §1, with “15 to day 22” for “15”; type: functional, organism-based
Trypanosoma cruzi [31] = experiment: Trypanocidal activity against Trypanosoma cruzi Y strain bloodstream trypomastigotes isolated from infected Swiss mouse […] assessed as parasite death after 24 hrs by neubauer chamber based light microscopy; type: functional, organism-based
Trypanosoma cruzi [32] = experiment: Trypanocidal activity against Trypanosoma cruzi Y strain intracellular amastigotes infected in mouse cardiac cells assessed as parasite death after 168 hrs by Giemsa-staining based assay; type: functional, organism-based
[33] = Cytotoxicity against Swiss mouse embryonic cardiomyocytes assessed as reduction in cell viability after 24 hrs by prestoblue-staining based colorimetry; details: Cardiac muscle cell
[34] = Toxicity in Swiss Webster mouse infected with Trypanosoma cruzi Y strain bloodstream trypomastigotes assessed as weight loss at 25 mg/kg, po bid via gavage administered for 5 consecutive days measured at day 40 post infection; type: organism-based; details: in vivo
Trypanosoma cruzi [35] = experiment: Antiparasitic activity against Trypanosoma cruzi Y strain bloodstream trypomastigotes infected in Swiss Webster mouse assessed as protection against parasite-induced mortality by measuring survivial at 25 mg/kg, po bid via gavage administered for 5 consecutive days starting from day 5 post infection measured at day 40 post infection relative to control; type: functional
Trypanosoma cruzi [36] = experiment: Antiparasitic activity against Trypanosoma cruzi Y strain bloodstream trypomastigotes infected in Swiss Webster mouse at 25 mg/kg, po bid via gavage administered for 5 consecutive days starting from day 5 post infection followed by cyclophosphamide-induced immunosuppression on day 40 post infection for 4 consecutive days; type: functional, organism-based

Work on Nc1ncnc2c1c(-c1ccc(Cl)cc1)cn2[C@@H]1O[C@H](CO)C[C@H]1O yielded a remaining at 0.25 h, 5 µM (Cytochrome P450 (family) [1]) of 102%, a selectivity ratio [2] of 410 and an EC50 (Trypanosoma cruzi [3]) of 0.047 µM. It also gave an EC50 [4] of 19.1 µM, a remaining at 0.25 h, 5 µM (CYP450 [5]) of 86% and a remaining at 0.5 h, 5 µM (CYP450 [6]) of 75%. The remaining at 1 h, 5 µM (CYP450 [7]) was 68%, the remaining at 0.25 h, 5 µM (UGT [8]) was 101% and the remaining at 0.5 h, 5 µM (UGT [9]) was 95%. It also gave a remaining at 1 h, 5 µM (UGT [10]) of 89%, a remaining at 0.25 h, 5 µM (CYP450 [11]) of 101% and a remaining at 0.5 h, 5 µM (CYP450 [12]) of 101%. The remaining at 1 h, 5 µM (CYP450 [13]) was 91%, the remaining at 0.25 h, 5 µM (UGT [14]) was 101% and the remaining at 0.5 h, 5 µM (UGT [15]) was 96%. It also gave a remaining at 1 h, 5 µM (UGT [16]) of 96%, a remaining at 0.25 h, 5 µM (CYP450 [17]) of 98% and a remaining at 0.5 h, 5 µM (CYP450 [18]) of 96%. The remaining at 0.5 h, 5 µM (UGT [19]) was 96%, the remaining at 1 h, 5 µM (CYP450 [20]) was 90% and the remaining at 0.25 h, 5 µM (UGT [21]) was 96%. The remaining at 1 h, 5 µM (UGT [22]) was 95%, the remaining at 0.5 h, 5 µM (Cytochrome P450 (family) [23]) was 95% and the remaining at 1 h, 5 µM (Cytochrome P450 (family) [24]) was 93%. For the same compound, the remaining at 0.25 h, 5 µM [25] was 100%, the remaining at 0.5 h, 5 µM [26] was 106% and the remaining at 1 h, 5 µM [27] was 100%. For the same compound, the Activity (Trypanosoma cruzi [28]) was 94.6%, the Activity (Trypanosoma cruzi [29]) was “Active” and the Activity (Trypanosoma cruzi [30]) was “Active”. For the same compound, the EC50 (Trypanosoma cruzi [31]) was over 20 µM, the EC50 (Trypanosoma cruzi [32]) was 0.029 µM and the EC50 [33] was 284 µM. The Activity [34] was “Non-Toxic”, the Activity (Trypanosoma cruzi [35]) was 100% and the Activity (Trypanosoma cruzi [36]) was “inactive”.

From ChEMBL document CHEMBL4382200, “Discovery of Novel 7-Aryl 7-Deazapurine 3'-Deoxy-ribofuranosyl Nucleosides with Potent Activity against Trypanosoma cruzi” (J Med Chem, 2018)
